Data from US20140242707A1, “Compositions and Methods for Diagnosing Hypercoagulability and Hypocoagulability” (Philadelphia Health & Education Corporation d/b/a Drexel …, priority 2011, published 2014).
Where two headings read alike, the source gives them in different places.

Legend:
horse plasma = experiment: Thrombelastography of horse plasma, coagulation and fibrinolysis study (with tPA); type: biochemical; conditions: for % TTG Loss / MRL / MRTG / TMRL / TMRTG / TTG / CGT / CLS / CLT: CORM-2 100 μM
Description: Blood was collected directly into plastic tubes containing 0.105 M sodium citrate (9:1, v/v) from the jugular vein of ten clinically normal grade and American Quarter Horse mares between 400 and 600 kg. Three additional horses to be subsequently described with acute gastrointestinal disease had blood samples similarly collected. The mares were group-housed in corrals. Plasma was obtained by centrifugation of citrated whole blood at 3000×g for 15 minutes and immediately frozen at −80° C. Plasma was subsequently shipped on dry ice and stored at −80° C. until thrombelastographic analysis.
In the second series of experiments assessing both coagulation and fibrinolysis, sample composition consisted of 316 μl of plasma; 10 μl of tissue factor reagent (0.1% final concentration), 10 μl of tissue type plasminogen activator (tPA, 580 Genentech, Inc., San Francisco, Calif., USA; 300 IU/ml final concentration); 3.6 μl of dH2O, or 3.6 μl dH2O containing PHA (10 mM final concentration), or 3.6 μl of CORM-2 (100 μM final concentration) and 20 μl of 200 mM CaCl2. The effects of converting heme groups to either a carboxyheme or metheme in horse plasma during clot growth and fibrinolysis were assessed as subsequently described.
Plasma sample mixtures were placed in a disposable cup in a computer-controlled Thrombelastograph® hemostasis system (Model 5000, Haemoscope Corp., Niles, Ill., USA), with addition of CaCl2 as the last step to initiate clotting. Data were collected at 37° C. for 15 min in the first series of experiments involving coagulation alone, whereas in the experiments involving fibrinolysis data were collected until clot lysis time was observed. Elastic modulus-based parameters previously described were determined (Nielsen et al., 2009, Blood Coagul Fibrinolysis, 20: 377-380; Nielsen et al., 2009, Blood Coagul Fibrinolysis, 20: 448-455). The nomenclature used to describe these phenomena is as follows:
Time to maximum rate of thrombus generation (TMRTG): This is the time interval (min) observed prior to maximum speed of clot growth.
Maximum rate of thrombus generation (MRTG): This is the maximum velocity of clot growth observed (dynes/cm^2/sec).
Total Thrombus Generation (TTG): This is the total area under the velocity curve during clot growth (dynes/cm^2), representing the amount of clot strength generated during clot growth.
Time to maximum rate of lysis (TMRL): This is the time interval (min) measured from the time of maximum strength to the time when the velocity of clot disintegration is maximal.
Maximum Rate of Lysis (MRL): This is the maximum velocity of clot disintegration observed (-dynes/cm^2/sec).
Clot growth time (CGT): This is the time from clot amplitude of 2 mm [102 dynes/cm^2] until maximum strength is achieved, in min.
Clot lifespan (CLS): This is the sum of CGT and CLT.
Thrombelastographic data are presented as mean±SD or as individual animal parameter values as appropriate. The effects of addition of CORM-2 and PHA on coagulation and fibrinolytic kinetic parameters were analyzed with one way repeated measures analysis of variance, utilizing Holm-Sidak post hoc test (SigmaStat 3.1, Systat Software, Inc., San Jose, Calif., USA) as appropriate. A P value of <0.05 was considered significant.

human or rabbit plasma = conditions: 100 μM CORM-2, humans or rabbits; cited from earlier work
human plasma = conditions: fibrinolytic environment; cited from earlier work
ear bleeding time = conditions: CORM-2 intravenously, cited from earlier work
[1] = horse with lethal enteritis, tPA
[2] = horse with mild disease, tPA, PHA 10 mM
[3] = horse with moderate disease, tPA, PHA 10 mM
[4] = horse with moderate enteritis, tPA
[5] = normal horses, tPA 300 IU/ml, PHA 10 mM

[C-]#[O+].[C-]#[O+].[C-]#[O+].[C-]#[O+].[C-]#[O+].[C-]#[O+].[Cl][Ru][Cl].[Cl][Ru][Cl] [CORM-2, tricarbonyldichlororuthenium (II) dimer]
% TTG Loss (horse plasma; horse with lethal disease, tPA): 67.4% | MRL (horse plasma; horse with lethal disease, tPA): 0.1 -dynes/cm^2/sec | MRTG (horse plasma; horse with lethal disease, tPA): 2.8 dynes/cm^2/sec | TMRL (horse plasma; horse with lethal disease, tPA): 65.2 min | TMRTG (horse plasma; horse with lethal disease, tPA): 4.1 min | TTG (horse plasma; horse with lethal disease, tPA): 92 dynes/cm^2 | effect on MRL vs control sample (horse plasma; [1]): did not affect | increase in MRTG vs control sample (horse plasma; [1]): 12% | increase in TMRL vs control sample (horse plasma; [1]): 8 fold | increase in TTG vs control sample (horse plasma; [1]): 73% | % TTG Loss (horse plasma; [2]): 50.7% | MRL (horse plasma; [2]): 0.2 -dynes/cm^2/sec | MRTG (horse plasma; [2]): 6.8 dynes/cm^2/sec | TMRL (horse plasma; [2]): 122.8 min | TMRTG (horse plasma; [2]): 3.2 min | TTG (horse plasma; [2]): 274 dynes/cm^2 | decrease in MRL vs control sample (horse plasma; horse with mild enteritis, tPA): 88% | decrease in MRTG vs control sample (horse plasma; horse with mild enteritis, tPA): 3% | increase in TMRL vs control sample (horse plasma; horse with mild enteritis, tPA): 46 fold | increase in TTG vs control sample (horse plasma; horse with mild enteritis, tPA): 77% | % TTG Loss (horse plasma; [3]): 25.8% | MRL (horse plasma; [3]): 0.4 -dynes/cm^2/sec | MRTG (horse plasma; [3]): 7.2 dynes/cm^2/sec | TMRL (horse plasma; [3]): 62.9 min | TMRTG (horse plasma; [3]): 2.5 min | TTG (horse plasma; [3]): 198 dynes/cm^2 | decrease in MRL vs control sample (horse plasma; [4]): 83% | increase in MRTG vs control sample (horse plasma; [4]): 38% | increase in TMRL vs control sample (horse plasma; [4]): 55 fold | increase in TTG vs control sample (horse plasma; [4]): 160% | decrease in CGT vs control (horse plasma; normal horses, tPA): 26% | decrease in CLS (clot lifespan) vs control (horse plasma; normal horses, tPA): 77% | decrease in CLT vs control (horse plasma; normal horses, tPA): 83% | decrease in MRL vs control (horse plasma; normal horses, tPA): 27% | increase (prolongation) in TMRL vs control (horse plasma; normal horses, tPA): 113% | increase in CGT vs control (horse plasma; normal horses, tPA): 106% | increase in CLS vs control (horse plasma; normal horses, tPA): 154% | increase in CLT vs control (horse plasma; normal horses, tPA): 160% | increase in TTG vs control (horse plasma; normal horses, tPA): 35% | CGT (horse plasma; [5]): 6.4 ± 1.7 min | CLS (horse plasma; [5]): 77.1 ± 23.8 | CLT (horse plasma; [5]): 70.6 ± 23.0 min | MRL (horse plasma; [5]): 1.1 ± 0.5 -dynes/cm^2/sec | MRTG (horse plasma; [5]): 13.2 ± 3.4 dynes/cm^2/sec | TMRL (horse plasma; [5]): 26.2 ± 17.3 min | TMRTG (horse plasma; [5]): 2.7 ± 0.4 min | TTG (horse plasma; [5]): 312 ± 70 dynes/cm^2 | increase in MRTG (human or rabbit plasma): 64-100% | increase in TTG (human or rabbit plasma): 51-68% | increase in MRTG (human plasma): 120% | increase in TTG (human plasma): 113% | ear bleeding time (ear bleeding time; rabbits administered intravenous tPA): near normal | ear bleeding time (ear bleeding time; rabbits with platelet inhibition by aspirin and clopidogrel): normal

ONc1ccccc1 [PHA, phenylhydroxylamine]
% TTG Loss (horse plasma; [2]): 100% | MRL (horse plasma; [2]): 2.6 -dynes/cm^2/sec | MRTG (horse plasma; [2]): 4.0 dynes/cm^2/sec | TMRL (horse plasma; [2]): 2.4 min | TMRTG (horse plasma; [2]): 3.4 min | TTG (horse plasma; [2]): 100 dynes/cm^2 | decrease in MRTG vs control sample (horse plasma; horse with mild enteritis, tPA): 42% | decrease in TTG vs control sample (horse plasma; horse with mild enteritis, tPA): 28% | difference in TMRL between control and exposed sample (horse plasma; horse with mild enteritis, tPA): 8% | increase in MRL vs control sample (horse plasma; horse with mild enteritis, tPA): 53% | % TTG Loss (horse plasma; [3]): 100% | MRL (horse plasma; [3]): 2.3 -dynes/cm^2/sec | MRTG (horse plasma; [3]): 4.5 dynes/cm^2/sec | TMRL (horse plasma; [3]): 2.8 min | TMRTG (horse plasma; [3]): 2.8 min | TTG (horse plasma; [3]): 94 dynes/cm^2 | change in MRL vs control sample (horse plasma; [4]): essentially no change | decrease in MRTG vs control sample (horse plasma; [4]): 13% | increase in TMRL vs control sample (horse plasma; [4]): 64% | increase in TTG vs control sample (horse plasma; [4]): 23% | decrease in CLS (clot lifespan) vs control (horse plasma; normal horses, tPA): 77% | decrease in MRTG vs control (horse plasma; normal horses, tPA): 55% | decrease in TMRL vs control (horse plasma; normal horses, tPA): 84% | increase in MRL vs control (horse plasma; normal horses, tPA): 133% | CGT (horse plasma; [5]): 2.3 ± 0.5 min | CLS (horse plasma; [5]): 6.9 ± 1.4 | CLT (horse plasma; [5]): 4.6 ± 1.3 min | MRL (horse plasma; [5]): 3.5 ± 0.8 -dynes/cm^2/sec | MRTG (horse plasma; [5]): 5.6 ± 1.3 dynes/cm^2/sec | TMRL (horse plasma; [5]): 2.0 ± 0.2 min | TMRTG (horse plasma; [5]): 3.2 ± 0.6 min | TTG (horse plasma; [5]): 118 ± 26 dynes/cm^2 | decrease in MRTG (human plasma): 30% | decrease in TTG (human plasma): 21%
